Experimental data from patent publication US9597297B2, “Combination of pilocarpin and methimazol for treating Charcot-Marietooth disease and related disorders” (PHARNEXT, priority 2008, dated 2017).

Legend:
[1] = tested on: PMP22 mRNA; experiment: PMP22 mRNA expression in primary rat Schwann cells after 24 hrs drug incubation; assay type: cell-based
Description: Vials of rat Schwann cells (SC) primary culture (Sciencell # R1700) are defrosted and seeded at the density of 10,000 cells/cm2 in “Sciencell Schwann cell medium” (basal medium from Sciencell # R1701) in poly-L-lysine pre-coated 75 cm^2 flasks. The culture medium is composed of basal medium, 5% Fetal Bovine Serum (3H-Biomedical AB #1701-0025), 1% Schwann cell growth supplement (3H Biomedical AB #1701-1752), 1% Gentamicin (Sigma #G1397) and 10 μM of Forskolin (Sigma # F6886) to promote their proliferation.
After reaching confluency (4 to 10 days depending on cell batch), Schwann cells are purified by gentle agitation or by thy1.1 immunopanning that allow SC isolation from adherent fibroblasts, to produce cultures that are at least 95% pure. SC are then counted (Tryptan blue method) and seeded in poly-L-lysine pre-coated 75 cm^2 flask in the same SC medium. At confluency, cells are rinsed, trypsinized (trypsin-EDTA 1× diluted from Invitrogen #1540054), diluted in PBS without calcium and magnesium) counted and platted in 12 well-dishes (140 000 cells/well) in Sciencell Schwann cell medium with 5% of FBS, 1% of cell growth supplement (CGS), 40 μg/ml of gentamicin and 4 μM Forskolin.
Primary Schwann cell cultures (SC) are established from Sprague-Dawley newborn rats (between P0 and P2) sciatic nerves. All newborn rats are sacrificed and isolated in a Petri dish. Dissection is performed under sterile conditions.
The dorsal skin is removed from the hind paw and the lower torso. The sciatic nerve is isolated and transferred to a culture dish containing ice-cold Leibovitz (L15, Invitogen #11415) supplemented with 1% penicillin/streptomycin solution (50 UI/ml and 50 μg/ml, respectively; Invitrogen #15070) and 1% of bovine serum albumin (BSA, Sigma A6003). Both nerves per rats are transferred in a 15 ml tube containing ice-cold L15. The L15 medium is then removed and replaced by 2.4 ml of DMEM (Invitrogen #21969035) with 10 mg/ml of collagenase ([…]). Nerves are incubated in this medium for 30 minutes at 37° C. The medium is then removed and both nerves are dissociated by trypsin (10% trypsin EDTA 10×, Invitrogen #15400054) diluted in PBS without calcium and magnesium (Invitrogen #2007-03) for 20 min at 37° C. […] Cells are counted (Tryptan blue method) and seeded in Falcon 100 mm Primaria tissue culture plates at the density of 5·10^5 to 10^6 cells/dish. […]
After 8 days of culture (4 to 10 days depending on cell batches), Schwann cells reach confluency and the culture, containing a large amount of contaminating fibroblasts, is purified by the thy1.1 immunopanning method. […] Once they reach confluency, cells are rinsed, trypsinized (trypsin-EDTA), counted and platted in 12 well-dishes (100 000 cells/well). […]

[2] = tested on: CMT transgenic rat model (PMP22 transgenic rats); experiment: Post-mortem weighing of sciatic nerves and soleus muscles in CMT rats; assay type: in vivo; settings: CMT female rats treated 20 weeks
Description: FIG. 5: The analysis of the post-mortem samples obtained from the animals treated with drugs as described in the legend to FIG. 3. The rats treated with drugs and placebo during 20 weeks, were deeply anesthetized and the entire sciatic nerves and soleus muscles were carefully sampled and weighted. The graphs present the 30 mean values of these measurements.
Sciatic nerves are excised and used for weighting as well as for molecular biology and/or biochemical essays. (RT-Q-PCR for PMP22 mRNA and Western blots for myelin proteins quantifications; Cayman's EIA kits—for biochemical markers such as arachidonic acid metabolites, HPLC quantification for steroids and amines, ELISA for CNTF, IL-6 etc.) performed according to generally used protocols and for analytical procedures (drug concentrations measures).
The hind limbs muscles (soleus) are sampled, weighted, snap-frozen and preserved at −80° C. until analysis (the same as for sciatic nerves).

Row | SMILES | dose inducing the most important PMP22 mRNA down-regulation ([1]; primary Schwann cells) | PMP22 mRNA level of expression ([1]; primary Schwann cells, low doses 10 nM and 50 nM) | mass of sciatic nerves and soleus muscles [2] | PMP22 mRNA level ([1]; primary rat Schwann cells, 1 mM or 1 μM of compound A)
1 | CC[C@@H]1C(=O)OC[C@@H]1Cc1cncn1C [pilocarpine, (3S,4R)-3-ethyl-4-[(3-methylimidazol-4-yl)methyl]oxolan-2-one] | 1 µM | significantly down-regulated | smaller than that of methimazole | 
2 | Cn1cc[nH]c1=S [methimazole, 1-methyl-3H-imidazole-2-thione] | lower dose |  | completely corrected | significantly decreased
